Assays:
[1] = molecular target: T1, SN23-Syn4-Vp8 SNARE complex (Rattus norvegicus, UniProt O70377+Q08850+Q9WUF4); experiment: SNARE-driven membrane fusion (total lipid mixing) assay with proteoliposomes; assay type: biochemical; conditions: for inhibition of membrane fusion, peptide added before preincubation: peptide added before preincubation of T- and V-liposomes at 4°C overnight (Figure 4A)
T1 construct: Syn4 (amino acids 1–298); SNAP-23 (amino acids 1–210); VAMP8 (amino acids 1–100); GST (N, cleaved yes); made in house; host or cells: Escherichia coli Rosetta(DE3)pLysS
T1 sequence (Q08850 1-298): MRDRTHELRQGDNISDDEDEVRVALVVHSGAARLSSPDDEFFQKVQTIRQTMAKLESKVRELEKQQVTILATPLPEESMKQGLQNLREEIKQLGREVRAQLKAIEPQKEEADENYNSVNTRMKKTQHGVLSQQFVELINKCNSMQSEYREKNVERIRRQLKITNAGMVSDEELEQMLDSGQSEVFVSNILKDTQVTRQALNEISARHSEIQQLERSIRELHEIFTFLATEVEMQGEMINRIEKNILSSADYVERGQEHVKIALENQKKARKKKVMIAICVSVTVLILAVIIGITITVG
T1 sequence (O70377 1-210): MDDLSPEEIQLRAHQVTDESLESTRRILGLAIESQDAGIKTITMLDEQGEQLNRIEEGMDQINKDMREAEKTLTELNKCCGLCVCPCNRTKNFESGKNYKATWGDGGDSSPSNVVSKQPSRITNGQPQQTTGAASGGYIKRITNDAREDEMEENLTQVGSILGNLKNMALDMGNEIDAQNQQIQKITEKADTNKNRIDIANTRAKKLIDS
T1 sequence (Q9WUF4 1-100): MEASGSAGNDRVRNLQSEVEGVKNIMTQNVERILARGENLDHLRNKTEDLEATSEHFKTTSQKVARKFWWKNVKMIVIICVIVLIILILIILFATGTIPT
Description: (§1) Total RNA was obtained from RBL-2H3 cells using TRIzol® Reagent (#15596026, Invitrogen, Carlsbad, CA, USA) and served as a template for cDNA synthesis with M-MLV reverse transcriptase (M1705, Promega, Madison, WI, USA) according to the manufacturer’s protocol. The cDNAs amplified for rat Syn4, SNAP-23, VAMP2, VAMP4, VAMP7, and VAMP8 using each primer pair ([4]), were cloned into the pGEX-4T 1 vector. The mast cell SNARE proteins [Syn4 (amino acids 1–298), SNAP-23 (amino acids 1–210), full-length VAMP2 (VpF, amino acids 1–116), VAMP4 (amino acids 1–141), and VAMP8 (amino acids 1–100)] were expressed in Escherichia coli Rosetta(DE3)pLysS (#70956, Novagen, Darmstadt, Germany) and purified as glutathione-S-transferase-tagged fusion proteins as reported previously ([8]).
(§2) To prepare the unilamellar liposomes, a 50-mM lipid mixture of palmitoyl-2-oleoylphosphatidylcholine (POPC) (#850457, Avanti Polar Lipids, Alabaster, AL, USA):1,2-dioleoyl-phosphatidylserine (DOPS) (#840035, Avanti Polar Lipids) at 65:35 mol% was dried in a glass tube under a gentle stream of nitrogen gas and then exposed to a vacuum overnight. The resultant lipid film was resuspended in dialysis buffer (25 mM HEPES and 100 mM KCl, pH 7.4) by vortexing, followed by an extrusion step with polycarbonate membrane filters having a pore size of 100 nm (#610005, Avanti Polar Lipids). To prepare proteoliposomes, binary T-SNAREs, which were pre-formed by mixing Syn4 and SNAP-23 at room temperature for 60 min, were incubated with 50 mM unilamellar liposomes for 15 min at the same temperature, resulting in a 50:1 lipid/protein molar ratio ([9]).
(§3) For the preparation of V-SNARE proteoliposomes, a 10-mM premixed lipid solution [POPC:DOPS:N-(7-nitro-2-1,3-benzoxadiazol-4-yl (NBD))-phosphatidylserine (#810198, Avanti Polar Lipids):[…] (#810150, Avanti Polar Lipids) = 62:35:1.5:1.5 (molar ratio)] was used for the preparation of fluorescent liposomes in the same manner as above. The prepared liposomes were then mixed with VAMP2 for 15 min at room temperature. The liposome/protein mixture was diluted twice to bring the concentration of n-octyl glucoside (O8001, Sigma-Aldrich) below the critical micelle concentration. After overnight dialysis against 1L dialysis buffer at 4°C to remove the detergent, SM-2 bio-beads (#1523920, Bio-Rad Laboratories, Hercules, CA, USA) were added to the sample to remove any remaining n-octyl glucoside. The solution was then centrifuged at 10,000 × g to remove the protein/lipid aggregates, and the final lipid concentrations of both the T- and V-liposomes were adjusted to 1 mM with a lipid-to-protein ratio of 50:1.
A total lipid mixing assay using the T- and V-liposomes was performed as described previously with minor modifications ([8]). Briefly, peptide inhibitors were applied to the T-vesicles at the indicated concentrations and then the T-vesicles were mixed with the V-vesicles in a 384-well plate for the initiation of fusion, with a T- to V-vesicle volume ratio of 9:1. The fusion was monitored using the dequenching of NBD fluorescence signal (excitation 465 nm/emission 530 nm). After at least 80 min of fusion, the maximum NBD signal was obtained by adding 0.1% Triton X-100™. All the lipid-mixing experiments were performed at 37°C.

RBL-2H3 mast cells [2] = experiment: Degranulation assay, β-hexosaminidase release; assay type: cell-based, rat; conditions: for inhibition of mast cell degranulation with versus without A23187 pretreatment: PTD-conjugated peptides, read-outs β-hexosaminidase and histamine (Figure 4B); for reduction of β-hexosaminidase release: 10 µM PTD-fused peptide without SLO (LY294002 as positive control), DNP-BSA stimulation, no A23187 pretreatment, three independent experiments (Figure 2A gray bars, 2C)
[3] = molecular target: T1, SN23-Syn4-Vp8 SNARE complex; experiment: SNARE-driven membrane fusion (total lipid mixing) assay with proteoliposomes; assay type: biochemical; conditions: peptide added after preincubation of T- and V-liposomes at 4°C overnight (partially zippered SNAREs) (Figure 4A)
[4] = molecular target: T2, SN23-Syn4-Vp2 SNARE complex (Rattus norvegicus, UniProt O70377+P63045+Q08850); experiment: as above; assay type: biochemical; conditions: for inhibition of membrane fusion, peptide added after preincubation: peptide added after preincubation of T- and V-liposomes at 4°C overnight (partially zippered SNAREs) (Figure 4A); for inhibition of membrane fusion, peptide added before preincubation: peptide added before preincubation of T- and V-liposomes at 4°C overnight (Figure 4A)
T2 construct: Syn4 (amino acids 1–298); SNAP-23 (amino acids 1–210); full-length VAMP2 (VpF, amino acids 1–116); GST (N, cleaved yes); made in house; host or cells: Escherichia coli Rosetta(DE3)pLysS
T2 sequence (P63045 whole entry, one chain of several, the tested form may be a part): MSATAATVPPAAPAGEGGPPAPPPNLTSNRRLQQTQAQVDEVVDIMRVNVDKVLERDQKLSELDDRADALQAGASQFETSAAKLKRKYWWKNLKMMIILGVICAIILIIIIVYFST
Description: as §1, §2, §3
A total lipid mixing assay using the T- and V-liposomes was performed as described previously with minor modifications ([8]). […] The fusion was monitored using the dequenching of NBD fluorescence signal (excitation 465 nm/emission 530 nm). After at least 80 min of fusion, the maximum NBD signal was obtained by adding 0.1% Triton X-100™. All the lipid-mixing experiments were performed at 37°C.

RBL-2H3 mast cells [5] = experiment: Degranulation assay, histamine release (enzyme immunoassay); assay type: cell-based, rat; conditions: for inhibition of histamine release: PTD-conjugated peptide without SLO (LY294002 as positive control), DNP-IgE sensitized, DNP-BSA stimulation, no A23187 pretreatment, three independent experiments (Figure 2C)
NC/Nga mice = experiment: DNCB-induced atopic dermatitis-like skin lesions; assay type: in vivo, mouse
Description: Seven-week-old NC/Nga mice were purchased from the Shizuoka Laboratory Animal Center (Shizuoka, Japan) and allowed to adapt to the environment for a week prior to use. The procedures for the induction of atopic dermatitis-like symptoms in mice using 1-chloro-2,4-dinitro-benzene (DNCB) have been well described previously ([27]). Briefly, the dorsal hair of the mice was shaved 2 days before DNCB administration. For the induction of atopic dermatitis, 1% DNCB was applied to the dorsal skin of the mice twice weekly for 7 days and then 0.2% DNCB was applied thrice weekly for 21 days. The mice were divided into the following […] treatment groups (n = 10 per group): 0.3 and 3% Vp2N/day, 0.3 and 3% Vp8N/day, 0.1% dexamethasone/day, and vehicle only, dorsally administered from 9 to 13 weeks of age. As a negative control for atopic dermatitis, NC/Nga mice that were not treated with DNCB were maintained under pathogen-free conditions. Laboratory animal breeding management was based on the “Guide for the Care and Use of Laboratory Animals,” and all experiments were approved by the Institutional Animal Care and Use Committees of Gyeonggi Institute of Science & Technology.

SN23-Syn4-Vp2 complex = molecular target: T3, SN23-Syn4-Vp2 complex (Rattus norvegicus, UniProt O70377+P63045+Q08850); experiment: Co-immunoprecipitation of SNARE complexes in activated RBL-2H3 cells, anti-SNAP-23 blot; assay type: cell-based; conditions: peptides added to the medium after A23187 pretreatment; IP of Vp2, blot anti-SNAP-23 (Figure 4C)
T3 construct: Lysates of RBL-2H3 cells; endogenous in cells; host or cells: RBL-2H3 (ATCC CRL-2256)
T3 sequence (P63045 whole entry, one chain of several): as the sequence (P63045 whole entry, one chain of several, the tested form may be a part) above
Procedure: Lysates of RBL-2H3 cells (0.5–1 × 10^6 cells), which were obtained by the addition of 1 mL lysis buffer (50 mM Tris–HCl, 150 mM NaCl, 1% Triton X-100™, 1 mM EDTA, pH 7.5) supplemented with a protease inhibitor cocktail (Calbiochem®, Merck Millipore, Billerica, MA, USA), were centrifuged at 13,000 g at 4°C to remove cell debris and precleared with 100 µL protein G Sepharose® (GE Healthcare) for 2 h at 4°C. The precleared lysates were incubated with antibodies against SNARE proteins (Syn4, SNAP-23, VAMP2, and VAMP8) for 2 h at 4°C for binding, and then the antibody–antigen complexes were precipitated by incubation with a protein G slurry overnight with constant shaking. After an extensive washing step with lysis buffer, an immunoblotting analysis was performed for the precipitates. The immunoprecipitated proteins and cell lysates were electrophoresed on 12% sodium dodecyl sulfate-polyacrylamide gel electrophoresis gels and then transferred to nitrocellulose blotting membranes (GE Healthcare). After blocking the membranes in TBST (10 mM Tris–HCl, 150 mM NaCl, and 0.05% Tween® 20, pH 8) containing 0.5% BSA and 5% skim milk for 1 h at room temperature, primary anti-SNAP-23 antibody (1:1,000 dilution) in TBST supplemented with 1% BSA and 0.01% sodium azide was added and incubated at 4°C overnight. The membranes were washed with TBST, treated with a horseradish peroxidase-conjugated secondary anti-mouse IgG antibody (A4416, Sigma-Aldrich), and visualized using enhanced chemiluminescence solution for the development of a luminescent signal.

[6] = inhibitor applied to T-vesicles, T:V 9:1, 37°C, NBD dequenching, Vp2S/Vp8S at 10 µM, three independent experiments (Figure 3B-D)
[7] = cells pretreated with A23187, sensitized with DNP-IgE, then PTD-conjugated peptide (Figure 4B)

Sequence | inhibition of membrane fusion, peptide added before preincubation [1] | inhibition of mast cell degranulation with versus without A23187 pretreatment (RBL-2H3 mast cells [2]) | inhibition of membrane fusion, peptide added after preincubation [3] | inhibition of membrane fusion, peptide added after preincubation [4] | inhibition of membrane fusion, peptide added before preincubation [4] | reduction of β-hexosaminidase release (RBL-2H3 mast cells [2]) | inhibition of histamine release (RBL-2H3 mast cells [5]) | further results
DQINKDMREAEKTLTEL [SN23C, 17-mer peptide, C-terminal region of SNAP-23 SNARE motif SN23] | did not inhibit membrane fusion regardless of preincubation | did not inhibit degranulation regardless of whether the pretreatment with A23187 was performed | did not inhibit membrane fusion regardless of preincubation | did not inhibit membrane fusion regardless of preincubation | did not inhibit membrane fusion regardless of preincubation | – | – | –
RGENLDHLRNKTEDLEA [Vp8M, 17-mer peptide, middle region of VAMP8 SNARE motif] | – | – | – | – | – | – | – | inhibition of membrane fusion (lipid mixing) [1, 6]: specific to the SN23-Syn4-Vp8 complex
KIKHVQNQVDEVIDVMQ [Vp4N, 17-mer peptide, N-terminal region of VAMP4 SNARE motif] | – | – | – | – | – | 0–20% | 0–20% | –
EHFKTTSQKVARKFWWK [Vp8C, 17-mer peptide, C-terminal region of VAMP8 SNARE motif] | did not inhibit membrane fusion regardless of preincubation | did not inhibit degranulation regardless of whether the pretreatment with A23187 was performed | did not inhibit membrane fusion regardless of preincubation | did not inhibit membrane fusion regardless of preincubation | did not inhibit membrane fusion regardless of preincubation | – | – | –
RRLQQTQAQVDEVVDIM [Vp2N, 17-mer peptide, N-terminal region of VAMP2 SNARE motif] | – | inhibited mast cell degranulation more efficiently than without pretreatment | – | inhibitory activities significantly diminished | inhibited the membrane fusion driven only by their cognate SNARE complexes | did not inhibit | 43% | inhibition of β-hexosaminidase release after A23187 pretreatment (RBL-2H3 mast cells [2]; [7]): did not inhibit; inhibition of histamine release after A23187 pretreatment (RBL-2H3 mast cells [5]; [7]): dramatically reduced; epidermal thickness (NC/Nga mice; 0.3 and 3% peptide/day dorsally for 4 weeks, n = 10 per group, versus DNCB/vehicle-treated group (Figure 5C)): significantly reduced; atopic dermatitis features (acanthosis, hypergranulosis, hyperkeratosis) in hematoxylin and eosin-stained sections (NC/Nga mice; 0.3 and 3% peptide/day dorsally, 9 to 13 weeks of age, n = 10 per group, compared with 0.1% dexamethasone/day group (Figure 5B)): clearly alleviated to a similar extent; ear thickness (NC/Nga mice; 0.3 and 3% peptide/day or 0.1% dexamethasone/day for 4 weeks, n = 10 per group (Figure 5D)): reduced; inhibition of membrane fusion (lipid mixing) [4, 6]: efficiently inhibited; SNARE complex formation in cells (amount of SN23-Syn4-Vp2 complex) (SN23-Syn4-Vp2 complex): reduced
QSLDRVTETQAQVDELK [Vp7N, 17-mer peptide, N-terminal region of VAMP7 SNARE motif] | – | – | – | – | – | 0–20% | 0–20% | –

Reference: article PMC5904360, “Soluble N-Ethylmaleimide-Sensitive Factor Attachment Protein Receptor-Derived Peptides for Regulation of Mast Cell Degranulation” (Frontiers in Immunology, 2018)
